Results: PMC6259253, “Synthesis of Benzofuran Derivatives via Rearrangement and Their Inhibitory Activity on Acetylcholinesterase” (Molecules, 2010)

Each molecule was assayed against T1, AChE (Rattus norvegicus, UniProt P37136) (assay: biochemical). Details: AChE from rat brain homogenate; Ellman's method; means ± standard deviation of three independent experiments; read-out: AChE inhibition (IC50).
T1 construct: utilizing freshly prepared AChE from rats brain homogenate; from tissue; host or cells: rat whole brain except cerebellum, homogenate
Procedure: AChE activity was measured in duplicate by the spectrophotometric method reported by Ellman et al. with some modifications, mainly involving the source of the enzyme and the reference compound. Rat brain homogenate was used as the enzyme source. The whole brain except for the cerebellum was homogenized in nine volumes of 100 mM sodium phosphate buffer (pH 7.0). The test compounds were dissolved in dimethyl sulphoxide (DMSO). The AChE activity was expressed as a change in OD at 412 nm.

T1 sequence (P37136 32-614): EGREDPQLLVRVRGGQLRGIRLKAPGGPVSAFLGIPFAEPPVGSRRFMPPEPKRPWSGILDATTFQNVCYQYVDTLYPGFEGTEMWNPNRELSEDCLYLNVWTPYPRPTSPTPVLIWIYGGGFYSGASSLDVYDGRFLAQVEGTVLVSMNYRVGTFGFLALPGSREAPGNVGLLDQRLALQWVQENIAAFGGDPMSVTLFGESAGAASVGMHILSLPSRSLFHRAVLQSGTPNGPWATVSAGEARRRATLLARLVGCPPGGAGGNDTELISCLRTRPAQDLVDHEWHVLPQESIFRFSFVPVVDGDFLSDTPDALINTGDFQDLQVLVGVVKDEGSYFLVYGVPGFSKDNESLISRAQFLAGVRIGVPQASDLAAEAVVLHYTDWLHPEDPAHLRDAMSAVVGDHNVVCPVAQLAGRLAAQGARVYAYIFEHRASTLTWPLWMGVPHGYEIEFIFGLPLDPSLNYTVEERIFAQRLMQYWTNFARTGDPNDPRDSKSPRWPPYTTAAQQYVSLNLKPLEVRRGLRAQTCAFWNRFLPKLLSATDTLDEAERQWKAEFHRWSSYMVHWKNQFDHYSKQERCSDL

First: Cc1ccc2oc(C(=O)N3CCN(c4ccccc4C)CC3)c(N3CCOCC3)c2c1 [Compound A2, (4-o-Tolylpiperazin-1-yl)-(5-methyl-3-morpholinobenzofuran-2-yl) methanone]
Second: Cc1ccc(N2CCN(C(=O)c3oc4ccc(C)cc4c3N3CCOCC3)CC2)cc1 [Compound A4, (4-p-Tolylpiperazin-1-yl)-(5-methyl-3-morpholinobenzofuran-2-yl) methanone]
The IC50 of the first is 2.9-fold higher: 32 ± 0.1 µM for the first, 11 ± 0.2 µM for the second. The second is the more potent here.

With `COc1ccc(N2CCN(C(=O)c3oc4ccc(C)cc4c3N3CCOCC3)CC2)cc1` [Compound A5, (4-(4-Methoxyphenyl)piperazin-1-yl) (5-methyl-3-morpholinobenzofuran-2-yl) methanone] the IC50 was 21 ± 0.1 µM.
